By Kd is commonly meant the concentration at which binding is half-saturated. As a reminder, the Km is the concentration of substrate that gives half-maximal velocity.

Results on 6 compounds are retold here after PMC5253651 (Nature Communications, 2017).

Assay [1] addresses T1, human FPPS (Homo sapiens, UniProt P14324).
T1 sequence (P14324 1-353 isoform P14324-2): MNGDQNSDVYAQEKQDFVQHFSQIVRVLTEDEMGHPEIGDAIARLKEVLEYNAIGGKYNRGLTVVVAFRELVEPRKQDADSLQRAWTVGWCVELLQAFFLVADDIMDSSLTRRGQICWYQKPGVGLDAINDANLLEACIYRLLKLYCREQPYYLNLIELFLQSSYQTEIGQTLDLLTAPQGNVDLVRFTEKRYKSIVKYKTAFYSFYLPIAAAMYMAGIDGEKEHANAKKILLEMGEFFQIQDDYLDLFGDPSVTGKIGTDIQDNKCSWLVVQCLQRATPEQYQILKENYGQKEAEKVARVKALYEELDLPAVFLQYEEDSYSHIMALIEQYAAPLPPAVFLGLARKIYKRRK
The assay is described as follows: Isothermal titration calorimetry (ITC) binding assay. More on the design: His6 (N); made in house; host or cells: Escherichia coli BL21 (DE3). How it is done:
Ligand (DMAPP, GPP and FPP) and MgCl2 solutions were prepared in the used dialysate. Each titration experiment consisted of a first 1 μl injection followed by 18 2 μl injections of a ligand solution into the 204.1 μl calorimetric cell loaded with the enzyme solution. […] When added, the concentration of MgCl2 was 5 mM. Heats of dilution were measured by injecting the ligands into the buffer alone and subtracted from the corresponding titration data. The data were fitted to the single-site-binding model implemented in the Origin software package provided with the ITC instrument.
(ITC needs no label: the signal is the heat of the interaction.)

Assay [2] deals with T1, human FPPS.
Procedure: Reaction calorimetry was also carried out at 30 °C with a MicroCal iTC200 system. The enzyme and substrates were prepared in the reaction buffer (50 mM HEPES (pH 7.5), 150 mM NaCl, 2 mM MgCl2, 2 mM β-mercaptoethanol and 5% glycerol) in the same way described for the binding experiments. […] When added, FPP was preincubated together with the enzyme. The concentration of the enzyme in the cell was 400–500 nM, and those of the substrates in the syringe were 0.4–4 mM. Heats of dilution were measured and subtracted from the actual reaction data. […] Briefly, The molar reaction enthalpy (ΔH) was determined first based on the relationship:
in which Q is the total heat associated with producing n moles of product, [S0] is the starting concentration of the limiting substrate and V is the volume of the calorimetric cell. Q was calculated by integrating the thermal power (dQ/dt) measured over the complete course of reaction, whereas [S0] and V were known. Once ΔH was determined, the substrate concentration ([S]) could be determined as a function of time as described in the equation:
The rate of reaction could be calculated from dQ/dt for any given time point:
For kinetic measurements, the temporal experimental heat flow must be monitored accurately. […] Km and Vmax values were determined by fitting the rate data to the following equation[29]:
For another assay, the system named is FPPS. The settings on record: cited from earlier work.
The target in a further assay is N-BP-bound FPPS complex. As to conditions: binding of IPP to an N-BP-bound FPPS complex; cited from earlier work.
[3] abbreviates: ITC, 30 °C, titrated in absence of Mg2+, triplicate, read-out: Kd.
[4] abbreviates: ITC, 30 °C, titrated in presence of Mg2+ (5 mM MgCl2), triplicate, read-out: Kd.
[5] abbreviates: ITC, 30 °C, titrated in absence of Mg2+, triplicate.
[6] abbreviates: ITC, 30 °C, titrated in presence of Mg2+ (5 mM MgCl2), triplicate.

SMILES strings stand for the structures. Where two headings read alike, the source gives them in different places. Marks after values point to notes of the source that are not given here.

As to `CC(C)=CCC/C(C)=C/CC/C(C)=C/CO[P@@](=O)(O)OP(=O)(O)O` (stereo in doubt) [FPP, farnesyl pyrophosphate], the Kd on human FPPS [1] (setting [3]) was 5.3 ± 0.4 µM; on human FPPS [1] (setting [4]) it was 6 ± 0.6 µM; on human FPPS [1] (summary of ITC values in absence and presence of Mg2+, read-out: Kd for binding to the allosteric pocket), 5 to 6 µM.
For `CC(C)=CCOP(=O)(O)OP(=O)(O)O` [DMAPP, dimethylallyl pyrophosphate], at human FPPS [1] (setting [5]), the TΔS was 1.6 kcal/mol, the “n (molar binding ratio)” value is 1 ^† and the ΔH was -4.5 ± 0.2 kcal/mol. At human FPPS [1] (setting [6]), the TΔS was found to be 2.1 kcal/mol, the “n (molar binding ratio)” value stood at 0.87±0.01 and the ΔH is -5.8 ± 0.1 kcal/mol. At human FPPS [1] (Kd, ITC, 30 °C, titrated in absence of Mg2+, triplicate), this compound showed a Kd of 43.7 ± 4.3 µM. Besides, the Kd at human FPPS [1] (Kd, ITC, 30 °C, titrated in presence of Mg2+ (5 mM MgCl2), triplicate) was found to be 2.2 ± 0.2 µM.
`CC(C)=CCC/C(C)=C/CC/C(C)=C/COP(=O)(O)OP(=O)(O)O` [FPP, farnesyl pyrophosphate]: at human FPPS [1] (setting [5]), the TΔS was 1.8 kcal/mol, the “n (molar binding ratio)” value stood at 1.12±0.01 and the ΔH is -5.5 ± 0.1 kcal/mol. For the same compound, on human FPPS [1] (setting [6]), the TΔS is 1.7 kcal/mol, the “n (molar binding ratio)” value is recorded as 1.17±0.02 and the ΔH was -5.6 ± 0.1 kcal/mol. Besides, the “effect on FPPS reaction rate curve (product inhibition)” value on human FPPS [2] (same excess experiment, reaction with an initial amount of FPP preincubated with enzyme) is listed as “depressed rate curve”.
On to `CC(C)=CCC/C(C)=C/COP(=O)(O)OP(=O)(O)O` [GPP, geranyl pyrophosphate], for which the TΔS stood at 1.8 kcal/mol on human FPPS [1] (setting [5]) and 0.2 kcal/mol at human FPPS [1] (setting [6]). The results for the “n (molar binding ratio)” value at human FPPS [1] (setting [5]) and on human FPPS [1] (setting [6]) were 0.80±0.03 and 0.79±0.01, respectively. The ΔH is -5.3 ± 0.2 kcal/mol at human FPPS [1] (setting [5]) and -7.7 ± 0.2 kcal/mol on human FPPS [1] (setting [6]). The Kd on human FPPS [1] (setting [3]) came out at 7.6 ± 0.9 µM; at human FPPS [1] (setting [4]), 2.1 ± 0.3 µM. In addition, in the assay on FPPS (previously reported Km value for GPP), the Km is 2.07 µM.
Consider `C=C(C)CCO[P@@](=O)(O)OP(=O)(O)O` [IPP, isopentenyl pyrophosphate], for which the Kd on N-BP-bound FPPS complex was 0.9 µM. Moreover, the Km in the assay with FPPS (literature value for IPP) was 1.8 µM. For the same compound, the “effect on enzyme activity (substrate inhibition)” value on human FPPS [2] (experiment carried out in excess of IPP) is “significantly reduced enzyme activity”.
Take `O=P(O)(O)OP(=O)(O)O` [PPi]: the “binding affinity by ITC (result in words)” value at human FPPS [1] (both in the presence and absence of Mg2+) was “did not demonstrate an apparent binding event”.
